Data as given in patent US6858591B2, “Antibiotic AA 896 analogs” (Wyeth Holdings Corporation, priority 2001, dated 2005).
≈ marks a conversion by molar mass, not a printed value. Like-named read-outs stand apart in the source and are kept apart here.

Experiments:
Assay in all cases: In vitro MIC, broth dilution
Format in all cases: cell-based
K. pneumoniae GC 4534 = conditions: Klebsiella pneumoniae, GC4534
E. faecalis GC 842 = conditions: Enterococcus faecalis, GC842
Procedure: (§1) The minimum inhibitory concentration (MIC), the lowest concentration of the antibiotic which inhibits growth of the test organism, is determined by the broth dilution method using Muller-Hinton II […] (Baltimore Biological Laboratories) following the recommendations of National Committee for Clinical Laboratory Standards. [Reference for the Methods for dilution antimicrobial susceptibility tests for bacteria that grow aerobically: National Committee for Clinical Laboratory Standards, 1997. Approved standard M7-A National Committee for Clinical Laboratory Standards, Wayne, Pa.] An inoculum level of 5×10^5 CFU/ml, and a range of antibiotic concentrations (64-0.06 μg/ml) is used. The MIC is determined after the microtiter plates are incubated for 18 hours at 35° C. in an ambient air incubator. The test organisms comprise a spectrum of gram-positive bacteria including Staphylococcus sp., Streptococcus sp. and Enterococcus sp. These organisms include recent clinical isolates that are resistant to methicillin, penicillin and vancomycin.

E. faecalis GC 4555 = conditions: Enterococcus faecalis, GC4555
Procedure: as §1

CNS GC 4537 = test system: CNS GC 4537
Procedure: as §1

CNS GC 4547 = test system: CNS GC 4547
Procedure: as §1

S. aureus GC 1131 = conditions: Staphylococcus aureus, GC1131
Procedure: as §1

E. faecalis GC 2242 = conditions: Enterococcus faecalis, GC2242
Procedure: as §1

S. aureus GC 2216 = conditions: Staphylococcus aureus, GC2216
Procedure: as §1

CNS GC 4538 = test system: CNS GC 4538
Procedure: as §1

S. aureus GC 4536 = conditions: Staphylococcus aureus, GC4536
Procedure: as §1

E. cloacae GC 3783 = conditions: Enterobacter cloacae, GC3783
C. albicans GC 3066 = conditions: Candida albicans, GC3066
E. coli GC 3226 = conditions: Escherichia coli, GC3226
S. marcescens GC 4077 = conditions: Serratia marcescens, GC4077
P. aeruginosa GC 2214 = conditions: Pseudomonas aeruginosa, GC2214
E. coli GC 2203 = conditions: Escherichia coli, GC2203
M. morganii GC 4531 = conditions: Morganella morganii, GC4531
E. coli GC 4559 = conditions: Escherichia coli, GC4559
E. coli GC 4560 = conditions: Escherichia coli, GC4560
P. aeruginosa GC 4532 = conditions: Pseudomonas aeruginosa, GC4532
[1] = K. pneumoniae GC 4534, read-out: MIC
[2] = E. faecalis GC 842, read-out: MIC
[3] = E. faecalis GC 4555, read-out: MIC
[4] = S. aureus GC 1131, read-out: MIC
[5] = E. faecalis GC 2242, read-out: MIC
[6] = S. aureus GC 2216, read-out: MIC
[7] = S. aureus GC 4536, read-out: MIC
[8] = E. cloacae GC 3783, read-out: MIC
[9] = C. albicans GC 3066, read-out: MIC
[10] = S. marcescens GC 4077, read-out: MIC
[11] = P. aeruginosa GC 2214, read-out: MIC
[12] = M. morganii GC 4531, read-out: MIC
[13] = P. aeruginosa GC 4532, read-out: MIC

Row | Compound | MIC (K. pneumoniae GC 4534; [1]) | MIC (E. faecalis GC 842; [2]) | MIC (E. faecalis GC 4555; [3]) | MIC (CNS GC 4537; CNS GC 4537, read-out: MIC) | MIC (CNS GC 4547; CNS GC 4547, read-out: MIC) | MIC (S. aureus GC 1131; [4]) | MIC (E. faecalis GC 2242; [5]) | MIC (S. aureus GC 2216; [6]) | MIC (CNS GC 4538; CNS GC 4538, read-out: MIC) | MIC (S. aureus GC 4536; [7]) | MIC (E. cloacae GC 3783; [8]) | MIC (C. albicans GC 3066; [9]) | MIC (E. coli GC 3226; E. coli GC 3226, read-out: MIC) | MIC (S. marcescens GC 4077; [10]) | MIC (P. aeruginosa GC 2214; [11]) | MIC (E. coli GC 2203; E. coli GC 2203, read-out: MIC) | MIC (M. morganii GC 4531; [12]) | MIC (E. coli GC 4559; E. coli GC 4559, read-out: MIC) | MIC (E. coli GC 4560; E. coli GC 4560, read-out: MIC) | MIC (P. aeruginosa GC 4532; [13]) | other results
1 | COc1ccc(Cn2c(=O)ccn([C@@H]3OC([C@@H](O)[C@H](NCCCNC(=O)C(NC(=O)OCc4ccccc4)[C@@H](O)C(C)C)C(=O)OC(C)(C)C)[C@@H](O[Si](C)(C)C(C)(C)C)[C@H]3O[Si](C)(C)C(C)(C)C)c2=O)cc1 (stereo in doubt) [Example 3, tert-Butyl (5R,12S)-12-[(S)-[(3R,4R,5R)-3,4-bis{[tert-butyl(dimethyl)silyl]oxy}-5-(3-(4-methoxybenzyl)-2,4-dioxo-3,4-dihydro-1(2H)-pyrimidinyl)tetrahydro-2-furanyl](hydroxy)methyl]-5-[(1S)-1-hydroxy-2-methylpropyl]-3,6-dioxo-1-phenyl-2-oxa-4,7,11-triazatridecan-13-oate] | – | – | – | – | – | – | – | – | – | – | – | – | – | – | – | – | – | – | – | – | MIC (K. pneumoniae GC 4534): > 128 mg/L; MIC (E. faecalis GC 842): > 128 mg/L; MIC (E. faecalis GC 4555): 128 mg/L (≈ 123 µM); MIC (CNS GC 4537): > 128 mg/L; MIC (CNS GC 4547): 128 mg/L (≈ 123 µM); MIC (S. aureus GC 1131): > 128 mg/L; MIC (E. faecalis GC 2242): 128 mg/L (≈ 123 µM); MIC (S. aureus GC 2216): > 128 mg/L; MIC (CNS GC 4538): > 128 mg/L; MIC (S. aureus GC 4536): > 128 mg/L; MIC (E. cloacae GC 3783): > 128 mg/L; MIC (C. albicans GC 3066): 128 mg/L (≈ 123 µM); MIC (E. coli GC 3226): > 128 mg/L; MIC (S. marcescens GC 4077): > 128 mg/L; MIC (P. aeruginosa GC 2214): 128 mg/L (≈ 123 µM); MIC (E. coli GC 2203): > 128 mg/L; MIC (M. morganii GC 4531): 128 mg/L (≈ 123 µM); MIC (E. coli GC 4559): > 128 mg/L; MIC (E. coli GC 4560): 128 mg/L (≈ 123 µM); MIC (P. aeruginosa GC 4532): 128 mg/L (≈ 123 µM)
2 | COc1ccc(Cn2c(=O)ccn([C@@H]3OC(C(O)[C@H](NCCCNC(=O)[C@@H](N)CC(=O)O)C(=O)OC(C)(C)C)[C@@H](O[Si](C)(C)C(C)(C)C)[C@H]3O[Si](C)(C)C(C)(C)C)c2=O)cc1 (stereo in doubt) [Example 17, (3S)-3-Amino-4-[(3-{[(1S,2S)-2-[(3R,4R,5R)-3,4-bis{[tert-butyl(dimethyl)silyl]oxy}-5-(3-(4-methoxybenzyl)-2,4-dioxo-3,4-dihydro-1(2H)-pyrimidinyl)tetrahydro-2-furanyl]-1-(tert-butoxycarbonyl)-2-hydroxyethyl]amino}propyl)amino]-4-oxobutanoic acid] | > 128 mg/L | 32 mg/L (≈ 35.8 µM) | 16 mg/L (≈ 17.9 µM) | > 128 mg/L | > 128 mg/L | 128 mg/L (≈ 143 µM) | 4 mg/L (≈ 4.47 µM) | 32 mg/L (≈ 35.8 µM) | 64 mg/L (≈ 71.6 µM) | 128 mg/L (≈ 143 µM) | > 128 mg/L | > 128 mg/L | > 128 mg/L | > 128 mg/L | > 128 mg/L | > 128 mg/L | > 128 mg/L | > 128 mg/L | > 128 mg/L | > 128 mg/L | –
3 | COc1ccc(Cn2c(=O)ccn([C@@H]3OC([C@H](O)[C@H](NCCCNC(=O)[C@@H](NC(=O)OCc4ccccc4)C(C)O)C(=O)O)[C@@H](O)C3O[Si](C)(C)C(C)(C)C)c2=O)cc1 (stereo in doubt) [Example 46, (5S,12S)-12-[(R)-[(3R,4R,5R)-4-{[tert-butyl(dimethyl)silyl]oxy}-3-hydroxy-5-(3-(4-methoxy-benzyl)-2,4-dioxo-3,4-dihydro-1(2H)-pyrimidinyl)tetrahydro-2-furanyl](hydroxy)methyl]-5-[(1S)-1-hydroxyethyl]-3,6-dioxo-1-phenyl-2-oxa-4,7,11-triazatridecan-13-oic acid] | > 128 mg/L | 128 mg/L (≈ 152 µM) | 128 mg/L (≈ 152 µM) | > 128 mg/L | > 128 mg/L | > 128 mg/L | 128 mg/L (≈ 152 µM) | > 128 mg/L | > 128 mg/L | > 128 mg/L | > 128 mg/L | 128 mg/L (≈ 152 µM) | > 128 mg/L | > 128 mg/L | 128 mg/L (≈ 152 µM) | > 128 mg/L | 128 mg/L (≈ 152 µM) | > 128 mg/L | 128 mg/L (≈ 152 µM) | 128 mg/L (≈ 152 µM) | –
4 | CCCCCCCCCCCCCC(=O)OC(C)[C@H](NC(=O)OCc1ccccc1)C(=O)NCCCNC(C(=O)OCC)C(O)C1O[C@@H](n2ccc(=O)[nH]c2=O)[C@H](OC(C)=O)[C@@H]1OC(C)=O (stereo in doubt) [Example 58, Ethyl (5S)-12-[(R)-[(2R,3R,4R,5R)-3,4-bis(acetyloxy)-5-(2,4-dioxo-3,4-dihydropyrimidin-1(2 h)-yl)tetrahydrofuran-2-yl](hydroxy)methyl]-3,6-dioxo-1-phenyl-5-[(1S)-1-(tetradecanoyloxy)ethyl]-2-oxa-4,7,11-triazatridecan-13-oate] | > 128 mg/L | > 128 mg/L | > 128 mg/L | > 128 mg/L | > 128 mg/L | > 128 mg/L | > 128 mg/L | > 128 mg/L | > 128 mg/L | > 128 mg/L | > 128 mg/L | > 128 mg/L | > 128 mg/L | > 128 mg/L | > 128 mg/L | > 128 mg/L | > 128 mg/L | > 128 mg/L | > 128 mg/L | > 128 mg/L | –
5 | COc1ccc(Cn2c(=O)ccn([C@@H]3OC([C@H](O)[C@H](NCCCNC(=O)[C@@H](NC(=O)OCc4ccccc4)[C@@H](O)C(C)C)C(=O)OC(C)(C)C)[C@@H](O[Si](C)(C)C(C)(C)C)[C@H]3O[Si](C)(C)C(C)(C)C)c2=O)cc1 (stereo partly drawn) [Example 1, tert-Butyl (5S,12S)-12-[(R)-[(3R,4R,5R)-3,4-bis{[tert-butyl(dimethyl)silyl]oxy}-5-(3-(4-methoxybenzyl)-2,4-dioxo-3,4-dihydro-1(2H)-pyrimidinyl)tetrahydro-2-furanyl](hydroxy)methyl]-5-[(1S)-1-hydroxy-2-methylpropyl]-3,6-dioxo-1-phenyl-2-oxa-4,7,11-triazatridecan-13-oate] | – | – | – | – | – | – | – | – | – | – | – | – | – | – | – | – | – | – | – | – | MIC (K. pneumoniae GC 4534): > 128 mg/L; MIC (E. faecalis GC 842): > 128 mg/L; MIC (E. faecalis GC 4555): 128 mg/L (≈ 123 µM); MIC (CNS GC 4537): > 128 mg/L; MIC (CNS GC 4547): > 128 mg/L; MIC (S. aureus GC 1131): > 128 mg/L; MIC (E. faecalis GC 2242): 128 mg/L (≈ 123 µM); MIC (S. aureus GC 2216): > 128 mg/L; MIC (CNS GC 4538): > 128 mg/L; MIC (S. aureus GC 4536): > 128 mg/L; MIC (E. cloacae GC 3783): > 128 mg/L; MIC (C. albicans GC 3066): > 128 mg/L; MIC (E. coli GC 3226): > 128 mg/L; MIC (S. marcescens GC 4077): > 128 mg/L; MIC (P. aeruginosa GC 2214): 128 mg/L (≈ 123 µM); MIC (E. coli GC 2203): > 128 mg/L; MIC (M. morganii GC 4531): > 128 mg/L; MIC (E. coli GC 4559): > 128 mg/L; MIC (E. coli GC 4560): > 128 mg/L; MIC (P. aeruginosa GC 4532): 128 mg/L (≈ 123 µM)
6 | COc1ccc(Cn2c(=O)ccn([C@@H]3OC([C@H](O)[C@H](NCCCNC(=O)[C@@H](N)[C@@H](O)C(C)C)C(=O)OC(C)(C)C)[C@@H](O[Si](C)(C)C(C)(C)C)[C@H]3O[Si](C)(C)C(C)(C)C)c2=O)cc1 (stereo partly drawn) [Example 2, tert-Butyl (2S,3R)-2-[(3-{[(2S,3S)-2-amino-3-hydroxy-4-methylpentanoyl]amino}propyl)amino]-3-[(3R,4R,5R)-3,4-bis{[tert-butyl(dimethyl)silyl]oxy}-5-(3-(4-methoxybenzyl)-2,4-dioxo-3,4-dihydro-1(2H)-pyrimidinyl)tetrahydro-2-furanyl]-3-hydroxypropanoate] | > 128 mg/L | 8 mg/L (≈ 8.81 µM) | 4 mg/L (≈ 4.4 µM) | 4 mg/L (≈ 4.4 µM) | 16 mg/L (≈ 17.6 µM) | 4 mg/L (≈ 4.4 µM) | 4 mg/L (≈ 4.4 µM) | 4 mg/L (≈ 4.4 µM) | 4 mg/L (≈ 4.4 µM) | 16 mg/L (≈ 17.6 µM) | > 128 mg/L | > 128 mg/L | > 128 mg/L | > 128 mg/L | > 128 mg/L | > 128 mg/L | > 128 mg/L | > 128 mg/L | > 128 mg/L | > 128 mg/L | –
